Tested on: RNB12 specific T cells
Experiment: Identification of apitopes in the RNB12 region (fresh vs fixed APCs, proliferation and IFN gamma)
Assay type: cell-based, human
Conditions: RNB12 specific TCL, fresh or fixed BM14 cells (FIG. 18)
Protocol: Peripheral blood monocytes (PBMC) from healthy donors or Graves' disease patients were isolated (Histopaque-1077, Sigma-Aldrich), and frozen in aliquots. At day 0, cells were thawed and 106 PBMCs/ml cultured with 20 ug/ml peptide in supplemented (10 mM HEPES, 50 U/ml Penicillin/Streptomycin and 4 mM L-Glutamine (Lonza)) RPMI 1640 (Lonza) with 5% AB serum (Sigma Aldrich) added in a 6 well plate (Greiner Bio-one) and incubated in 37 C and 5% CO2. After 7 days rhIL-2 (R&D Systems) is added to a final concentration of 20 U/ml. […]
At day 24 the cells were harvested, washed and 2×104 cultured in a 96 well round-bottom plate (Cellstar, Greiner Bio One) with […] irradiated autologous PBMCs and VAVY/BM14/MGAR human cell lines expressing human MHC cl II molecules (International Histocompatibility Working group, Seattle, US) in supplemented RPMI+5% AB serum in presence of different antigens (peptides, protein) in concentration from 5-50 ug/ml. […] After the plates been frozen the cells were harvested and read with β counter (Wallac 1450 Microbeta Trilux) to assess proliferation. […]
The supernatants from TCL cultures were assessed for IFN gamma content by use of the Human IFN-gamma Duoset kit, R&D Systems following the manufacturer's instruction. Optical density was measured at 450 nm (Tecan Benelux)

KKKTLKLYNNGFTSVQGYKKK [RNB12-KKK]
apitope status: confirmed to be apitopes

Reference: US10730919B2, “Peptides” (APITOPE INTERNATIONAL NV, priority 2013, dated 2020)
